Measurements reported in publication PMC9515202, “Bis-pharmacophore of cinnamaldehyde-clubbed thiosemicarbazones as potent carbonic anhydrase-II inhibitors” (Scientific Reports, 2022).

What was measured:
[1] = target: bovine carbonic anhydrase II (bCA-II) (Bos taurus, UniProt P00921); assay: Carbonic anhydrase II (CA-II) inhibition, spectrophotometric p-nitrophenyl acetate assay; assay type: biochemical; details: pH 7.4, 25 °C; for IC50: bCA-II, substrate p-NPA, triplicate; for inhibition at 500 µM: pH 7.4, bCA-II, compound at 500 µM, read-out: % Inhibtion (500 µM)
Chain of bovine carbonic anhydrase II (bCA-II) (P00921 whole entry): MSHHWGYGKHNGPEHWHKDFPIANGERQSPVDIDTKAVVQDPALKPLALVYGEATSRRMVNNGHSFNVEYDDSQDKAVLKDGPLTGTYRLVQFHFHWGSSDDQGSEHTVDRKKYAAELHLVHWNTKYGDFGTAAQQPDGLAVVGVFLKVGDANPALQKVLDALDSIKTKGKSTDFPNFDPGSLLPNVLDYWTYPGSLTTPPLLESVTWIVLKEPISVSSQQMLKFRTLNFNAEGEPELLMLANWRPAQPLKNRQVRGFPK
Procedure: Evaluation of carbonic anhydrase inhibition was done by spectrophotometric technique as narrated by Pocker and Meany with little alteration[69],[70] as described previously. The process was carried out in HEPES-Tris buffer (20 mM) having pH 7.4 at 25 °C. Each inhibitory well contained 20 µL of CA-II enzyme solution (0.1 mg/mL HEPES-Tris buffer), 140 µL of HEPES-Tris buffer solution, 20 µL of the compound to be analyzed in HPLC grade DMSO. At 25 °C, the solution mixture was pre-incubated for 15 min. Substrate p-nitrophenyl acetate (p-NPA) (0.7 mM) was prepared in HPLC grade methanol and the reaction was initiated by the addition of 20 µL to a well in a 96-well-plate. The quantity of product formed was measured at 400 nm continually at 1 min gap for 30 min in a 96-well-plate using xMARK microplate spectrophotometer, Bio-Rad (USA). The inhibition activity of the controlled compound was considered as 100%. All the experiments were performed in triplicates of each used concentration, and the conclusions are expressed as a mean of the triplicate.
All thiosemicarbazones derivatives (3a–q) were tested against bovine carbonic anhydrase II (bCA-II).

| SMILES | IC50 [1] | inhibition at 500 µM [1] | melting point |
| --- | --- | --- | --- |
| Cc1ccc(NC(=S)N/N=C/C=C/c2ccc(N(C)C)cc2)cc1 [3a, (E)-2-((E)-3-(4-(Dimethylamino)phenyl)allylidene)-N-(p-tolyl)hydrazine-1-carbothioamide] | 46.6 ± 0.62 µM | 82% | 232 °C |
| Cc1cccc(C)c1NC(=S)N/N=C/C=C/c1ccc(N(C)C)cc1 [3b, (E)-2-((E)-3-(4-(Dimethylamino)phenyl)allylidene)-N-(2,6-dimethylphenyl)hydrazine-1-carbothioamide] | 40.4 ± 0.89 µM | 78.1% | 239 °C |
| CN(C)c1ccc(/C=C/C=N/NC(=S)NCCc2ccccc2)cc1 [3c] |  |  | 180 °C |
| CN(C)c1ccc(/C=C/C=N/NC(=S)Nc2cccc(Cl)c2Cl)cc1 [3d, (E)-N-(2,3-Dichlorophenyl)-2-((E)-3-(4-(dimethylamino)phenyl)allylidene)hydrazine-1-carbothioamide] | 36.6 ± 0.15 µM | 82.2% | 192 °C |
| CN(C)c1ccc(/C=C/C=N/NC(=S)Nc2ccccc2F)cc1 [3e, (E)-2-((E)-3-(4-(Dimethylamino)phenyl)allylidene)-N-(2-fluorophenyl)hydrazine-1-carbothioamide] | 19.7 ± 0.23 µM | 93.4% | 189 °C |
| COc1cccc(NC(=S)N/N=C/C=C/c2ccc(N(C)C)cc2)c1 [3f, (E)-2-((E)-3-(4-(Dimethylamino)phenyl)allylidene)-N-(3-methoxyphenyl)hydrazine-1-carbothioamide] | 17.9 ± 1.23 µM | 89.7% | 198 °C |
| CN(C)c1ccc(/C=C/C=N/NC(=S)Nc2ccc(Br)cc2)cc1 [3g, (E)-N-(4-Bromophenyl)-2-((E)-3-(4-(dimethylamino)phenyl)allylidene)hydrazine-1-carbothioamide] | 12.1 ± 1.01 µM | 93% | 240 °C |
| CN(C)c1ccc(/C=C/C=N/NC(=S)Nc2ccc(F)cc2F)cc1 [3h, (E)-N-(2,4-Difluorophenyl)-2-((E)-3-(4-(dimethylamino)phenyl)allylidene)hydrazine-1-carbothioamide] | 13.4 ± 0.52 µM | 77.1% | 202 °C |
| CC(C)c1ccc(NC(=S)N/N=C/C=C/c2ccc(N(C)C)cc2)cc1 [3i, (E)-2-((E)-3-(4-(Dimethylamino)phenyl)allylidene)-N-(4-isopropylphenyl)hydrazine-1-carbothioamide] | 33.6 ± 0.42 µM | 84.9% | 220 °C |
| CN(C)c1ccc(/C=C/C=N/NC(=S)Nc2cccc(F)c2)cc1 [3j, (E)-2-((E)-3-(4-(Dimethylamino)phenyl)allylidene)-N-(3-fluorophenyl)hydrazine-1-carbothioamide] |  | < 50% | 218 °C |
| CN(C)c1ccc(/C=C/C=N/NC(=S)NCc2ccc(Cl)cc2)cc1 [3k] |  |  | 196 °C |
| Cc1ccc(NC(=S)N/N=C/C=C/c2ccc(N(C)C)cc2)c(C)c1 [3l, (E)-2-((E)-3-(4-(Dimethylamino)phenyl)allylidene)-N-(2,4-dimethylphenyl)hydrazine-1-carbothioamide] | 18.3 ± 1.32 µM | 78.2% | 232 °C |
| CN(C)c1ccc(/C=C/C=N/NC(=S)Nc2ccc(Cl)cc2)cc1 [3m, (E)-N-(4-Chlorophenyl)-2-((E)-3-(4-(dimethylamino)phenyl)allylidene)hydrazine-1-carbothioamide] | 14.7 ± 1.42 µM | 79.9% | 238 °C |
| CN(C)c1ccc(/C=C/C=N/NC(=S)NCc2ccc(F)cc2)cc1 [3n] | 10.3 ± 0.62 µM | 63.2% | 192 °C |
| CN(C)c1ccc(/C=C/C=N/NC(=S)Nc2cccc(C#N)c2)cc1 [3o, (E)-N-(3-Cyanophenyl)-2-((E)-3-(4-(dimethylamino)phenyl)allylidene)hydrazine-1-carbothioamide] | 21.8 ± 0.85 µM | 81.8% | 215 °C |
| CN(C)c1ccc(/C=C/C=N/NC(=S)Nc2ccccc2)cc1 [3p, (E)-2-((E)-3-(4-(Dimethylamino)phenyl)allylidene)-N-phenylhydrazine-1-carbothioamide] |  |  | 218 °C |
| CN(C)c1ccc(/C=C/C=N/NC(=S)NC2CCCCC2)cc1 [3q, (E)-N-Cyclohexyl-2-((E)-3-(4-(dimethylamino)phenyl)allylidene)hydrazine-1-carbothioamide] |  |  | 252 °C |
